Results reported in PMC7967212, “Vitamin D Compounds PRI-2191 and PRI-2205 Enhance Anastrozole Activity in Human Breast Cancer Models” (International Journal of Molecular Sciences, 2021).

Molecular target: T1, aromatase (CYP19) (Homo sapiens, UniProt P11511)
T1 construct: gene CYP19A1
T1 sequence (P11511 1-503): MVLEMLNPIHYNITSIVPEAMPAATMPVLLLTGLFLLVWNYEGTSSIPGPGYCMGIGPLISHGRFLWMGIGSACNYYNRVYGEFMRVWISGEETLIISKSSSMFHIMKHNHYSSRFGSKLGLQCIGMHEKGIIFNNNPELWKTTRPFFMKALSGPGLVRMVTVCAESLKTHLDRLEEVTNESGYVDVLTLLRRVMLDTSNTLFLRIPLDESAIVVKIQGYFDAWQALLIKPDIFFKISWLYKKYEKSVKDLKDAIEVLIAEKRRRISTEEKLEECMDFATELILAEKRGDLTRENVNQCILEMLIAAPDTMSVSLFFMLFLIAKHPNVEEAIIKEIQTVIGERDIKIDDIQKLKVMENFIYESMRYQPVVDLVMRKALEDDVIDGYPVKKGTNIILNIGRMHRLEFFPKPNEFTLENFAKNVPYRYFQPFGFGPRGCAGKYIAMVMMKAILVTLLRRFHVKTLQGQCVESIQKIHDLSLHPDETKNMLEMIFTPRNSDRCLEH
Assay: CYP19/MFC High Throughput Inhibitor Screening Kit (Corning No. […]), fluorogenic enzyme inhibition
Assay type: biochemical

IC50: 152 ± 30.5 nM
SMILES: C=C1/C(=C\C=C2/CCC[C@]3(C)[C@@H]([C@H](C)CC[C@@H](O)C(C)C)CC[C@@H]23)C[C@@H](O)C[C@@H]1O [PRI-2191]
